Laboratory results taken from US4868117A, “BBM-1675, a new antitumor antibiotic complex” (Bristol-Myers Company, priority 1985, dated 1989).
Several values for one entry are separate records, joined by “and”; a condition that tells them apart may be missing. Identical values can stand only once. Like-named read-outs stand apart in the source and are kept apart here.

Columns and labels:
P-388 leukemia [1] = experiment: Intravenously implanted P-388 leukemia, i.v. treatment; conditions: days 1, 4 and 7, lines in dose order as in E66 (Adriamycin starts with 30)
Method: (§1) Lymphocytic leukemia P-388, lymphoid leukemia L-1210, melanotic melanoma B16 and Lewis lung carcinoma were implanted intraperitoneally into male BDF1 mice at an inoculum size of 10^6, 10^5, 5×10^5 and 10^6 cells per mouse, respectively. Graded doses of test compounds were administered to the mice intraperitoneally 24 hours after the tumor inoculation.
(§2) Death or survival of the treated and non-treated mice was recorded daily, and the median survival time (MST) was calculated for each of the test (T) and control (C) groups. […] Second experiments were carried out by intravenous administration of BBM-1675 components against P-388 and L-1210 leukemias, which were inoculated intravenously at 5×10^5 and 10^4 cells per mouse, respectively.

L-1210 leukemia [2] = experiment: Intravenously implanted L-1210 leukemia, i.v. treatment; conditions: days 1, 4 and 7, lines in dose order as in E71 (Adriamycin starts with 16)
Method: as §1, §2

P-388 leukemia [3] = conditions: for Therapeutic index, LD50/MED: MED = minimum effective dose
Method: as §1, §2

L-1210 leukemia [4] = conditions: i.p., qd 1→9
Method: as §1
(§3) Death or survival of the treated and non-treated mice was recorded daily, and the median survival time (MST) was calculated for each of the test (T) and control (C) groups.

male ddY mice = experiment: Toxicity (LD50) in male ddY mice; conditions: multiple dose (qd 1→9), i.p.
[5] = i.p., qd 1→11, lines in dose order as in E53
[6] = i.p., qd 1→9, lines in dose order as in E48

Method for B16 melanoma: as §1, §3
Method for Lewis lung carcinoma: as §1, §3

COc1cccc2c1C(=O)c1c(O)c3c(c(O)c1C2=O)C[C@@](O)(C(=O)CO)C[C@@H]3O[C@H]1C[C@H](N)[C@H](O)[C@H](C)O1 [Adriamycin, adriamycin]
Survivors on day 5 (P-388 leukemia [1]): 0/6 and 6/6 | Survivors on day 45 (P-388 leukemia [1]): 0/6 | Survivors on day 5 (L-1210 leukemia [2]): 2/6 and 6/6 | Survivors on day 45 (L-1210 leukemia [2]): 0/6

CO[C@@H]1[C@H](O)C[C@@H](O[C@@H]2C[C@H](Oc3cc4cc5c(c(O)c4c(O)c3C)C(=O)[C@@H](O[C@H]3C[C@@H](O[C@H]4C[C@@H](O[C@H]6C[C@](C)(O)[C@@H](OC(C)=O)[C@H](C)O6)[C@H](O)[C@@H](C)O4)[C@H](O)[C@@H](C)O3)[C@H]([C@H](OC)C(=O)[C@@H](O)[C@@H](C)O)C5)O[C@H](C)[C@@H]2OC(C)=O)O[C@@H]1C [Chromomycin A3, chromomycin A3]
Therapeutic index, LD50/MED (P-388 leukemia [3]; P-388, qd 1→9): 8 | Therapeutic index, LD50/MED (P-388 leukemia [3]; P-388, single): 8 | Survivors on day 45 (P-388 leukemia [3]; mouse, in vivo, ip): 0/5 and 1/5 | MST (L-1210 leukemia [4]; lines in dose order as in E43): 8.5 days and 11.0 days and 10.0 days | Survivors on day 5 (L-1210 leukemia [4]; lines in dose order as in E43): 6/6 | Survivors on day 45 (L-1210 leukemia [4]; lines in dose order as in E43): 0/6 | T/C (L-1210 leukemia [4]; ≥[…] significant, mg/kg/day in line order: A1 0.003,0.001,0.0003,0.0001, A2 0.03,0.01,0.003,0.001,0.0003, chromomycin A3 0.3,0.1,0.03,0.01,0.003): 89% | Therapeutic index, LD50/MED (Lewis lung carcinoma; LL, MED = minimum effective dose): 23 | Survivors on day 5 (Lewis lung carcinoma; [5]): 6/6 and 5/5 | Survivors on day 45 (Lewis lung carcinoma; [5]): 1/6 and 0/6 | MST (Lewis lung carcinoma; mouse, in vivo, ip): 17.0 | Survivors on day 45 (Lewis lung carcinoma; mouse, in vivo, ip): 0/5 | Therapeutic index, LD50/MED (B16 melanoma; B16, MED = minimum effective dose): 23 | MST (B16 melanoma; [6]): 23.0 days and 21.0 days | Survivors on day 5 (B16 melanoma; [6]): 6/6 | Survivors on day 45 (B16 melanoma; [6]): 0/6 | MST (B16 melanoma; mouse, in vivo, ip): 18.0 | LD50 (male ddY mice): 0.23 mg/kg/day
